The values that follow come from patent US20180235949A1 (priority 2015, published 2018).

The target in one data set is T1, α2B (h) (Homo sapiens, UniProt P18089).
T1 sequence (P18089 1-450): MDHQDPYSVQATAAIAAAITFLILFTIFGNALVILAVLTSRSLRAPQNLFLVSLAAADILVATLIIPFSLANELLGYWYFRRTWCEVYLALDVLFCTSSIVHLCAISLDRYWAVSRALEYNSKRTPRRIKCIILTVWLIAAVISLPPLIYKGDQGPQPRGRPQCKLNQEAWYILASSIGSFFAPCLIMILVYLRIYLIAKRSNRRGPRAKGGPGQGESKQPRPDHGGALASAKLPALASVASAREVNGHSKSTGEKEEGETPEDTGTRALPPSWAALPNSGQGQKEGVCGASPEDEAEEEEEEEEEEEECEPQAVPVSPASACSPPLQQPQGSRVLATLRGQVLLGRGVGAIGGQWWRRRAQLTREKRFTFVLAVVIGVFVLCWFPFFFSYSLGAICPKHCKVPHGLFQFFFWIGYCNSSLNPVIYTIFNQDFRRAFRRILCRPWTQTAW
Briefly: α2B (h) (antagonist radioligand) binding. The protocol:
(§1) Representative compounds were tested to determine IC50 or EC50 in receptor functional assays. One or more of the procedures disclosed in the following references were used: Devedjian, J. C. et al., Eur. J. Pharmacol., 1994, 252, 43-49; Wang, J. B. et al., FEBS Lett., 1994, 338, 217-222; Simonin, F. et al., Mol. Pharmacol., 1994, 46, 1015-1021; Meng, F. et al., Proc. Natl. Acad. Sci. U.S.A., 1993, 90, 9954-9958; Avidor-Reiss, T. et al., FEBS Lett., 1995, 361, 70-74; Eason, M. G. et al., J. Biol. Chem., 1992, 267, 15795-15801; Law, P. Y. et al., Mol. Pharmacol., 1993, 43, 684-693. In each experiment and if applicable, the respective reference compound was tested concurrently with the test compounds. Compound binding was calculated as a % inhibition of the binding of a radioactively labeled ligand specific for each target. Cellular agonist effect was calculated as a % of control response to a known reference agonist for each target and cellular antagonist effect was calculated as a % inhibition of control reference agonist response for each target. Only the calculable IC50 and EC50 are reported below.

Another data set has as its target κ (KOP) (Rattus norvegicus, UniProt P34975). In kind it is binding.
Data set [1] has as its target T2, μ (MOP) (h) (Homo sapiens, UniProt P35372). Type of data set: binding.
The target of data set [2] is T2, μ (MOP) (h). Briefly: μ (MOP) (h) (agonist effect) cellular functional assay. In kind it is cell-based. The protocol:
as §1

For another data set, the target named is CYP2C8 (Homo sapiens, UniProt P10632). Briefly: CYP2C8 inhibition, human liver microsomes (paclitaxel). To be noted: 0.1-25 μM.
Data set [3] in a line: Binding to plasma proteins. In kind it is in vitro ADME. To be noted: very small species differences.
Data set [4] relates to CYP1A2. The following applies: human hepatocytes, 72 hr, any concentration tested.
The subject of data set [5] is CYP2B6. The following applies: human hepatocytes, 72 hr, at 100 μM.
A short description of data set [6]: Bioavailability and stability evaluation. To be noted: summary.
For another data set, the target named is CYP2C9 (Homo sapiens, UniProt P11712). Briefly: CYP2C9 inhibition, human liver microsomes (tolbutamide). To be noted: 0.1-25 μM.
Data set [7] concerns the target CYP2B6 (Homo sapiens, UniProt P20813). The following applies: 0.1-25 μM, human liver microsomes, bupropion.
Data set [8] relates to CYP3A4. To be noted: human hepatocytes, 72 hr, any concentration tested.
Data set [9] concerns L-dopa-induced dyskinesia. Put plainly: L-dopa-induced dyskinesia, comparison with amantadine. In kind it is in vivo. To be noted: model not specified.
A short description of data set [10]: Toxicity in animal models. In kind it is in vivo. The following applies: many animal models, even at high concentrations.
Another data set deals with MDR1-MDCK cells. Put plainly: MDR1-MDCK permeability and P-gp substrate identification (bi-directional). Type of data set: in vitro ADME, canine. To be noted: 10 μM, MDR1-MDCK, pH 7.4. How it is done:
(§2) Cells were then incubated with HBSS at the desired pH in both apical and basolateral compartments for 40 min to stabilize physiological parameters.
(§3) The fluorescent integrity marker lucifer yellow was also included in the dosing solution. […] Analytical standards were prepared from test compound DMSO dilutions and transferred to buffer, maintaining a 1% v/v DMSO concentration.
(§4) For assessment of A-B permeability, HBSS was removed from the apical compartment and replaced with test compound dosing solution. […] For assessment of B-A permeability, HBSS was removed from the companion plate and replaced with test compound dosing solution. […] Test compound permeability was assessed in duplicate. Compounds of known permeability characteristics were run as controls on each assay plate. […] Cyprotex generic analytical conditions were used. The starting concentration (C0) was determined from the dosing solution and the experimental recovery calculated from C0 and both apical and basolateral compartment concentrations.
(§5) The integrity of the monolayer throughout the experiment was checked by monitoring lucifer yellow permeation using fluorimetric analysis.

For another data set, the system named is P-glycoprotein (MDR1). The data set is described as above. Type of data set: in vitro ADME, canine. To be noted: dog, MDCK-MDR1, pH 7.4; minus inhibitor (no cyclosporin A). The protocol:
as §2, §3, §4, §5

Another data set addresses CYP2C19 (Homo sapiens, UniProt P33261). Put plainly: CYP2C19 inhibition, human liver microsomes (mephenytoin). To be noted: up to 25 micromolar.
A short description of data set [11]: Brain tissue binding, equilibrium dialysis, mouse. To be noted: 5 μM.
Data set [12] addresses T3, CYP3A4 (Homo sapiens, UniProt P08684). The following applies: 0.1-25 μM, human liver microsomes, substrate midazolam.
Data set [13] deals with CYP1A2 (Homo sapiens, UniProt P05177). To be noted: 0.1-25 μM, human liver microsomes, phenacetin.
The target in another data set is T4, CYP2D6 (Homo sapiens, UniProt P10635).
T4 construct: from tissue
Briefly: Time dependent inhibition of CYP2D6 (dextromethorphan; IC50 shift). Type of data set: in vitro ADME. The protocol: Six test compound concentrations (0.1, 0.25, 1, 2.5, 10, 25 μM; final DMSO concentration 0.25%, final microsome concentration 0.5 mg/mL) were either pre-incubated for 30 min in the absence and presence of NADPH or undergo a 0 min pre-incubation. The probe substrate dextromethorphan (5 μM) and NADPH (1 mM) were then added (final DMSO concentration 0.3%) and the samples incubated for 5 min at 37° C. The selective time dependent CYP2D6 inhibitor, paroxetine, was screened alongside the test compounds as a positive control. The reactions were terminated by the addition of an aliquot of the incubation into methanol. The samples were centrifuged at 2500 rpm for 30 min at 4° C., and aliquots of the supernatant are diluted with formic acid in deionised water (final concentration 0.1%) containing internal standard prior to analysis of dextrorphan by LC-MS/MS.

Data set [14] has as its system L-DOPA induced dyskinesias. Put plainly: L-DOPA induced dyskinesias, Primate in vivo model.
In data set [15] the target is T3, CYP3A4. To be noted: 0.1-25 μM, human liver microsomes, substrate testosterone.
Data set [16] in a line: Caco-2 permeability (bi-directional). To be noted: human, Caco-2, pH 6.8.
For a further data set, the system named is Caco-2 cells. Put plainly: Caco-2 permeability (bi-directional). The following applies: 10 μM, pH gradient (pH 6.8/7.4).
Data set [17] deals with L-DOPA induced dyskinesias. Briefly: L-DOPA induced dyskinesias, Rodent in vivo model.
A further data set has as its target hERG potassium channel (Homo sapiens, UniProt Q12809). Briefly: hERG channel inhibition, IonWorks automated patch clamp, CHO-hERG cells. The following applies: up to 25 micromolar.

Read-outs that look alike come from different tables or passages of the source.

T4 sequence (P10635 whole entry): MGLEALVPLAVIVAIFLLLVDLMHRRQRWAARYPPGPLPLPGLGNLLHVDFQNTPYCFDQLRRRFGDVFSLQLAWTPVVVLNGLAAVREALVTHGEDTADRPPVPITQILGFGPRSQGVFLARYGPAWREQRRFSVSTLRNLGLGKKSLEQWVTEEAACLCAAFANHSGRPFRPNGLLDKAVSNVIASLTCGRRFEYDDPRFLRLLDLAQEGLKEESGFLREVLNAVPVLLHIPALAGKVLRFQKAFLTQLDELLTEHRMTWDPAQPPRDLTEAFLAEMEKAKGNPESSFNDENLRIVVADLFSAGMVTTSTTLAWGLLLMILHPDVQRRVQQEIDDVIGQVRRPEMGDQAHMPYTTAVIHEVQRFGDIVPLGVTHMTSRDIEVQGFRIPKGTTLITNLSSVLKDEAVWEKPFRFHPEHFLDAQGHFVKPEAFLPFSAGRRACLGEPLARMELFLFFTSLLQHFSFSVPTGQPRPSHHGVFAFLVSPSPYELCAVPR
T3 sequence (P08684 whole entry): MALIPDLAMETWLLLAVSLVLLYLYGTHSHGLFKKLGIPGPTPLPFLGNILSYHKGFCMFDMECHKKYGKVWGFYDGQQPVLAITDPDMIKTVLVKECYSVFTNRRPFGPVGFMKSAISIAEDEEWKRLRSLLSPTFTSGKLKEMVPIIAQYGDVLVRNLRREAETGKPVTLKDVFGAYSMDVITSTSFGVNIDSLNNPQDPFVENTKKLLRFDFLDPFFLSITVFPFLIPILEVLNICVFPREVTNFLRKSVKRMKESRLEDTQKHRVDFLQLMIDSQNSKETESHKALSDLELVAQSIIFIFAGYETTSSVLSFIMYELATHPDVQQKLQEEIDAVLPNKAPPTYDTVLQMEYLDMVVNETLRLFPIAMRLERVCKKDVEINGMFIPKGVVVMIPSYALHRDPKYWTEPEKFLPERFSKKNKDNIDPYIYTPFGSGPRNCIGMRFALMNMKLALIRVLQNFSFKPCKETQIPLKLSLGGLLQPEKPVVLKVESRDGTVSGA
T2 sequence (P35372 whole entry): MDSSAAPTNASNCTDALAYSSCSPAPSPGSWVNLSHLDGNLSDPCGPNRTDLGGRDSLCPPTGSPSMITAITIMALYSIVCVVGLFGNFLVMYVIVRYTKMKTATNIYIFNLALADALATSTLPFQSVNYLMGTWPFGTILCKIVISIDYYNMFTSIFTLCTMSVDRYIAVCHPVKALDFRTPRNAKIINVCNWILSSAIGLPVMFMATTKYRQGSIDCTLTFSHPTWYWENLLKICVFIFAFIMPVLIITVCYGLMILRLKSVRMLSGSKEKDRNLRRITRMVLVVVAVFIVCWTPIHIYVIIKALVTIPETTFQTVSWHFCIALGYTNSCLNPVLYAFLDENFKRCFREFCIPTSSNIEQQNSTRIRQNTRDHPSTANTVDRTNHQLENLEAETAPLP
Chain of CYP2C9 (P11712 whole entry): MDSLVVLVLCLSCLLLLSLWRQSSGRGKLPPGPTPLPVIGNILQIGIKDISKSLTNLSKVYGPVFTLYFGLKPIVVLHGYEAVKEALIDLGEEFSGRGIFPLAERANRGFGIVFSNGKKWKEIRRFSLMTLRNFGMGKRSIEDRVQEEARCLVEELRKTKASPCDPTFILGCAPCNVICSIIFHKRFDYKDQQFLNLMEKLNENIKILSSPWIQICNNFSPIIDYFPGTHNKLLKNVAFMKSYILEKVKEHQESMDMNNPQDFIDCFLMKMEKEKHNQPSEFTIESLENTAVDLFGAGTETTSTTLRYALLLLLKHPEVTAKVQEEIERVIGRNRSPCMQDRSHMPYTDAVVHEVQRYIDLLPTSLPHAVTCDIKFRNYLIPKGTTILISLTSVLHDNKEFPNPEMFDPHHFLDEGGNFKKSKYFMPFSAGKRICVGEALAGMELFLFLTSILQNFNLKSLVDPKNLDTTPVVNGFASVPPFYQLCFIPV
Chain of CYP2C19 (P33261 whole entry): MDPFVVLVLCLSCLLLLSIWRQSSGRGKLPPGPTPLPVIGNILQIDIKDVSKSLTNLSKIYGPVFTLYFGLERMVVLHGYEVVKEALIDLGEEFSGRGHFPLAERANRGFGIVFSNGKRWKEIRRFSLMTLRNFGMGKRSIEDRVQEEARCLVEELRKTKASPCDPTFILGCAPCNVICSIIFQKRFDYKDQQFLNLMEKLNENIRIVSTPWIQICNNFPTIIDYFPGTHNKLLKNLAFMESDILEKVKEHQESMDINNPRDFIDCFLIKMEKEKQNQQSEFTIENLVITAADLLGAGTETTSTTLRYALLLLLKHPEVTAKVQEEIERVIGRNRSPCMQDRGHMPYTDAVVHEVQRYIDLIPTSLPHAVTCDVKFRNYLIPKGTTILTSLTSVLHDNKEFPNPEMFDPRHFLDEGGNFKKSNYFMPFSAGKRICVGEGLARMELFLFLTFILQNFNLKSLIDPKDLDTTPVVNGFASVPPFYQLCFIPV
Chain of CYP2B6 (Homo sapiens, UniProt P20813) (P20813 whole entry): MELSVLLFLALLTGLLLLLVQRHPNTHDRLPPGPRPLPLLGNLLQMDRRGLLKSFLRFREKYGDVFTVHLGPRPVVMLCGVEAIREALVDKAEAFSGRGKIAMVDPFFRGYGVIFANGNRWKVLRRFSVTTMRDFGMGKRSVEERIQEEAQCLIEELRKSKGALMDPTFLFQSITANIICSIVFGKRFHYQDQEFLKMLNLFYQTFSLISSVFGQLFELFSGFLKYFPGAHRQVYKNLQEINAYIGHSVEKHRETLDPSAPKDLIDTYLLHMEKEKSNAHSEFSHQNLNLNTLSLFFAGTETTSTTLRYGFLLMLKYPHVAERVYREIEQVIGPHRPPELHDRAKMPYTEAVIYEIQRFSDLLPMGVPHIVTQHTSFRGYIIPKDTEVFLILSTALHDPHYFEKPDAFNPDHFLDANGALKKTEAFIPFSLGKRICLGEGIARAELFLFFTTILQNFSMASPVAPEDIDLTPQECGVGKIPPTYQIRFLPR
Chain of CYP2C8 (P10632 whole entry): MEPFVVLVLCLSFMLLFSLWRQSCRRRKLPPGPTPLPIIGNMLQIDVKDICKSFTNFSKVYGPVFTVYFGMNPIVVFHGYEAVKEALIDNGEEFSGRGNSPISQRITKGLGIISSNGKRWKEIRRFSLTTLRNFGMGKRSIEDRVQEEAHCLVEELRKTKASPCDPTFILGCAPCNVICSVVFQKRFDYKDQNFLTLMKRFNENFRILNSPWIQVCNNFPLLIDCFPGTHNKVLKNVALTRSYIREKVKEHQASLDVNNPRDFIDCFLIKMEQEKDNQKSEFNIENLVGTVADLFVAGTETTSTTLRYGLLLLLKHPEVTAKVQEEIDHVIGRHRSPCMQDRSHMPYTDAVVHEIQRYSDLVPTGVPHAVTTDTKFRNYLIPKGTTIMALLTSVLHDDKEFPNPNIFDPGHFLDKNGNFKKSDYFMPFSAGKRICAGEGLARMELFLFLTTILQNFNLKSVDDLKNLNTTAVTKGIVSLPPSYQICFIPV
Chain of hERG potassium channel (Q12809 whole entry): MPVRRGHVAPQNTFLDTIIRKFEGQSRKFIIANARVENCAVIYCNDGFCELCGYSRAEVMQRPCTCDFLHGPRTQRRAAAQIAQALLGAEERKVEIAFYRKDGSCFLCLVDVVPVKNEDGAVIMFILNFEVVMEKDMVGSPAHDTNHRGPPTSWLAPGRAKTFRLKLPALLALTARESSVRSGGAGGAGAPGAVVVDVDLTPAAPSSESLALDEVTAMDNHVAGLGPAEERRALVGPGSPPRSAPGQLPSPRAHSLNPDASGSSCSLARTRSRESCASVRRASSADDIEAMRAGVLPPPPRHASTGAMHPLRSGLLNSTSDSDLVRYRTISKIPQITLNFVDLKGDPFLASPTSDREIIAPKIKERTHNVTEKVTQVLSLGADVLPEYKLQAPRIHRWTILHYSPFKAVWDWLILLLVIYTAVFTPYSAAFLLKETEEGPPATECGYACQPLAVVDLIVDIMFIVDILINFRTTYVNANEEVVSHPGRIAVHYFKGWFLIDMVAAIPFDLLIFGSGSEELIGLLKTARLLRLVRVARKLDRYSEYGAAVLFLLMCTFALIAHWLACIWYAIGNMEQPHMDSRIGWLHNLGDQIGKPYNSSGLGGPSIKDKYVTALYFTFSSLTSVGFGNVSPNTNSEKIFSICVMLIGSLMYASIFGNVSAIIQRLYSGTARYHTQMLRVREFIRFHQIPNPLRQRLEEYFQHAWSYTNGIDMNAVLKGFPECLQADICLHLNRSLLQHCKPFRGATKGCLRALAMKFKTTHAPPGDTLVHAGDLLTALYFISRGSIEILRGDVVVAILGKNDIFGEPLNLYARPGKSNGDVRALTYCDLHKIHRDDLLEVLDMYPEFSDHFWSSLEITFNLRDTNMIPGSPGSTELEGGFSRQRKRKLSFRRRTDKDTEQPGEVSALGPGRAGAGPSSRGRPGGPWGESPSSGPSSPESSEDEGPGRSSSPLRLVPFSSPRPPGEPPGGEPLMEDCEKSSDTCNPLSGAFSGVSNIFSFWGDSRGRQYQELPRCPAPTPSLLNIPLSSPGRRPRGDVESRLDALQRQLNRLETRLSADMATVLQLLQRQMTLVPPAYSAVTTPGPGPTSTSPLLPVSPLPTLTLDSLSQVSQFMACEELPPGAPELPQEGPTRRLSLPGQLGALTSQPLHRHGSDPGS
Chain of κ (KOP) (P34975 whole entry): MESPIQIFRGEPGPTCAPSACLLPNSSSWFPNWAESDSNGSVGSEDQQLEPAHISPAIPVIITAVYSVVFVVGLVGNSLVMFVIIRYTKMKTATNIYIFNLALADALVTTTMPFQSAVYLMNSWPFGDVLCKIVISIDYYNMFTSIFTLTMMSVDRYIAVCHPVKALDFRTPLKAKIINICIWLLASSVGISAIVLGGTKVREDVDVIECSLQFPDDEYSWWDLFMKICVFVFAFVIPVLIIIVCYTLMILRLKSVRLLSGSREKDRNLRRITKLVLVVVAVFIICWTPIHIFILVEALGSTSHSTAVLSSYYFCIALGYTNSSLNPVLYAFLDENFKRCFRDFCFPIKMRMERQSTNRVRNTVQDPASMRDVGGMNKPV

For the compound `CCC(=O)NC1CCN(CCC(=O)OC)CC1` [Methyl 3-(4-propionamidopiperidin-1-yl)propanoate], the IC50 at α2B (h) amounted to 260 µM. The compound further displayed a Ki at α2B (h) of 180 µM. The nH on α2B (h) (α2B (h) (antagonist radioligand)) is listed as 1; on κ (KOP) it was 0.8; on μ (MOP) (h) [1] it was 0.5. This compound gave an EC50 on μ (MOP) (h) [2] of 290 µM.

`CCC(=O)NC1CCN(CCc2ccccc2)CC1` [HCV-3, N-(1-phenethylpiperidin-4-yl)propionamide]: the CYP2C8 inhibition entry on CYP2C8 is recorded as “No significant inhibition”. Moreover, in data set [3], the “binding to plasma proteins” value is given as “weak, or no noticeable binding”. In addition, in the data set on CYP1A2 [4], the “CYP1A2 mRNA expression” value is “didn't cause a statistically significant change”. Moreover, in the data set with CYP2B6 [5], the “CYP2B6 mRNA expression” value is given as “slight, yet statistically significant decrease”. The bioavailability entry in [6] is listed as “highly bioavailable”. Besides, on CYP2C9, the CYP2C9 inhibition entry is “No significant inhibition”. Further, at CYP2B6 [7], the CYP2B6 inhibition result is recorded as “No significant inhibition”. Also, the “CYP3A4 mRNA expression” value in the data set with CYP3A4 [8] is recorded as “didn't cause a statistically significant change”. In data set [9], the “effectiveness compared with amantadine” value is “significantly more effective than amantadine”. The toxicity entry in [10] is “virtually no toxicity”. For the same compound, the “permeability in the MDCK assay” value in the data set with MDR1-MDCK cells is “highly permeable”. The efflux ratio at 60 min, 10 µM in the data set with P-glycoprotein (MDR1) came to 1.48. Also, at CYP2C19, the “CYP2C19 IC50” value is “too weak to generate an IC50 value”. Moreover, in data set [11], the binding entry was “no binding at all could be detected”. In addition, the CYP3A4 inhibition result on CYP3A4 [12] and on CYP3A4 [15] was “No significant inhibition” each time. The CYP1A2 inhibition entry at CYP1A2 [13] is recorded as “No significant inhibition”. Moreover, at CYP2D6 (25 μM, 30 minute plus NADPH incubation), the CYP2D6 inhibition entry is “approximately 40%”. Also, the “time-dependent CYP2D6 inhibition (conclusion)” value on CYP2D6 (IC50 shift, 30 min pre-incubation with/without NADPH) is recorded as “no evidence of time-dependent CYP2D6 inhibition”. For the same compound, on CYP2D6 (human, microsomes, probe dextromethorphan (5 µM), 0 minute incubation), the IC50 at 5 min was over 25 µM. The inhibition at 5 min, 25 µM at CYP2D6 (human, microsomes, probe dextromethorphan (5 µM), 25 μM, 0 minute incubation) is about 40%. Besides, the “inhibition of L-DOPA induced dyskinesias” value in [14] and in [17] was “significant inhibition” in each case. For the same compound, the efflux ratio at 120 min, 10 µM in [16] was 2.7. For the same compound, in the data set on Caco-2 cells, the “permeability in the Caco-2 assay” value is on record as “highly permeable in both directions”. Further, the “hERG inhibition activity (conclusion)” value on hERG potassium channel is given as “weak or no significant hERG inhibition activity”.
